Reference: US20090209474A1, “NOVEL USES FOR DRUGS TARGETING GLUTAMINE SYNTHETASE” (NEWTHERA, priority 2005, published 2009)

Columns and labels:
glutamine synthetase = target: T1, glutamine synthetase (Rattus norvegicus, UniProt P09606); assay: Proteins precipitated by NF from rat brain homogenate (mass spectrometry); assay type: binding; settings: 8% gel, native conditions
T1 construct: Wistar rat brain homogenates were incubated with naftazone; from tissue; host or cells: Wistar rat brain homogenate or membranes; in A19 also liver and lungs
T1 sequence (P09606 2-373 limits assumed): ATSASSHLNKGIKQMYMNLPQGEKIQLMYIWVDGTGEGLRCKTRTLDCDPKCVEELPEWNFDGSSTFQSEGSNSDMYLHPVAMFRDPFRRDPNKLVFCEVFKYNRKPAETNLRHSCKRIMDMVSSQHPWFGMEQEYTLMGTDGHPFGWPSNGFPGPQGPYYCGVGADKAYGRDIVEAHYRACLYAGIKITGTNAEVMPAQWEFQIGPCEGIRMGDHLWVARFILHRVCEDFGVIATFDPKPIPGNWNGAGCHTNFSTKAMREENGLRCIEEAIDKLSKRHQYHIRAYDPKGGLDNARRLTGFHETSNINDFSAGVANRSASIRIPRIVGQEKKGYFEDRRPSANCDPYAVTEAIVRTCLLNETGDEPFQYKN

purified pig brain GS = target: T2, purified pig brain GS (Sus scrofa, UniProt P46410); assay: Interaction of NF and purified pig GS (agarose diffusion, precipitation, spot blot, western blot); assay type: binding
T2 construct: Fifty microlitre of purified pig brain GS (3 mg/ml) was added to one peripheral well; from tissue; host or cells: pig brain (purified enzyme)
T2 sequence (P46410 2-373 limits assumed): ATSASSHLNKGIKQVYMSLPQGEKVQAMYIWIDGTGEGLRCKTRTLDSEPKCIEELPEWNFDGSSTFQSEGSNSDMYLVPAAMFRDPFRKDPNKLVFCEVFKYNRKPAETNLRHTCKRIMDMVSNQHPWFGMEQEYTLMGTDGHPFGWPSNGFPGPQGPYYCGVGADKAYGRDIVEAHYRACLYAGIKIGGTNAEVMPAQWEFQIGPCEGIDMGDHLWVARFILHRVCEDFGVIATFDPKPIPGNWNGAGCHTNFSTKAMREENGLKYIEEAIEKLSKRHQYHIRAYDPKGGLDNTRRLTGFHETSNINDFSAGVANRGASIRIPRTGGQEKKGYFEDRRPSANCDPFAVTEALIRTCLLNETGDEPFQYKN
Procedure: Five ml of agarose 0.1% were let to polymerise in a Petri dish. Five wells with equal volume and distance from each other, 1 central and 4 peripherals, were made on it using a 300 μl tip. The central well was filed with 50 μl of NF solution ([…]). Fifty microlitre of purified pig brain GS (3 mg/ml) was added to one peripheral well. In two other wells either 50 μl of TBS or FCS was added. The gel was humidified and left at 37° C. for 48 h.
The final concentration of methanol per assay tube was 10% V/V. Fixed (3 mg/ml) or variable (0.023 to 3 mg/ml) concentrations of either purified brain pig GS or rat brain homogenates were added to each assay tube. The tubes were incubated a room temperature for 5 min. Methanol (10%) and FCS were used as negative controls. The tubes were thereafter centrifuged at 700 g. Supernatant was discarded and the pellets were suspended in 100 μl working buffer and incubated for 15 min at 37° C. The reaction was finally stopped and absorbance was measured as described above.
Twenty μl of agarose gel with precipitated NF/protein complexes issued from diffusion study was applied to methanol activated PVDF membrane. Non-specific binding sites were blocked by 5% low fat skimmed milk in TBS buffer, supplemented with 0.1% tween 20. Transferred proteins were allowed to react with either polyclonal rabbit anti-GS (1/3000) or anti-GR (1/3000) antibodies for 30 min at room temperature. After one quick wash with TBS, 0.1% tween 20, horseradish peroxidase conjugated goat anti-rabbit antibody was subjected (1/5000) to the transferred proteins for 30 min at room temperature.
Twenty μl per well of precipitated NF/protein complex were separated on 8% SDS-PAGE gel in absence or presence of 2β-mercaptoethanol. The proteins separated in presence or the absence of SDS were thereafter transferred to a nitrocellulose membrane ([…]). Non-specific binding sites were blocked by 5% low fat skimmed milk in TBS buffer, supplemented with 0.1% tween 20. Transferred proteins were thereafter allowed to react with either polyclonal rabbit anti-GS (1/3000) or anti-GR (1/3000) antibodies for 30 min at room temperature. After one quick wash with TBS, 0.1% tween 20, horseradish peroxidase conjugated goat anti-rabbit antibody was subjected (1/5000) to the transferred proteins for 30 min at room temperature.

GS [1] = target: GS (Rattus norvegicus, UniProt P09606); assay type: in vivo, Wistar rats; set-up: from tissue; host or cells: Wistar rat brain homogenate or membranes; in A19 also liver and lungs
Sequence of GS (Rattus norvegicus, UniProt P09606) (P09606 2-373 limits assumed): as the sequence (P09606 2-373 limits assumed) above
Procedure: (§1) Cortex, hippocampi and thalamus/hypothalamus were carefully isolated immediately after euthanasia. Membranes were prepared and the activity of GS determined in these different structures (as mentioned above for the whole brain).

GS [2] = target: GS (Mus musculus, UniProt P15105); assay type: in vivo, BALB/c mice; set-up: from tissue; host or cells: mouse brain (whole brain, cortex, hippocampus, thalamus/hypothalamus); settings: 24 h after single i.p., NF 10 and 100 mg/kg
Sequence of GS (Mus musculus, UniProt P15105) (P15105 2-373 limits assumed): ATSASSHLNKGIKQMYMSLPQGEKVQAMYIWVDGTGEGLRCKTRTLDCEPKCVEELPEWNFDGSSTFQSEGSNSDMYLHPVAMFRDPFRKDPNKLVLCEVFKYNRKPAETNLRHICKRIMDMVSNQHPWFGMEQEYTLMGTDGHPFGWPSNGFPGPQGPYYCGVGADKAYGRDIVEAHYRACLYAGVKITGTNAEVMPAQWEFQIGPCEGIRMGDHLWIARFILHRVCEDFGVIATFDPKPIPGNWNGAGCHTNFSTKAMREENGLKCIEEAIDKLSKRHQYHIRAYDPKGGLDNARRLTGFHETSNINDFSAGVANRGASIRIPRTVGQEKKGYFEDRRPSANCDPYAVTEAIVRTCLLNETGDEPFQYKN
Procedure: as §1

[3] = Adrenal weight of rats administered methylprednisolone; assay type: in vivo, Wistar rats
Procedure: Wistar rats were administered during 21 days once a day with methyprednisolone (5 mg/kg i.p.) plus GF (0.001, 0.01, 0.1 mg/kg), NF (1 and 10 mg/kg) or vehicle (PCB; i.p). Twenty-four hours after the last administrations, they were euthanatized. A complete necropsy was performed and main organs weighted.

Wistar rat brain GS = target: T3, Wistar rat brain GS (Rattus norvegicus, UniProt P09606); assay: GS activity in Wistar rat brain homogenates; assay type: biochemical; settings: in absence of 2β-ME
T3 construct: from tissue; host or cells: Wistar rat brain homogenate or membranes; in A19 also liver and lungs
T3 sequence (P09606 2-373 limits assumed): as the sequence (P09606 2-373 limits assumed) above
Procedure: GS activity was assessed as mentioned above for purified sheep brain GS.

GS (mung bean) = settings: cited from earlier work

presence of G-actin in the isolated band (glutamine synthetase) | presence of glutamine synthetase in the isolated band (glutamine synthetase) | interaction between NF and purified pig GS in agarose (0.1%) gel (purified pig brain GS; Commassie blue) | precipitation of GS protein by different concentration of NF (purified pig brain GS; NF 6.3e^−19 to 4.8e^−7 M, GS 3 mg/ml) | precipitated proteins subjected to rabbit anti-GR antibodies (purified pig brain GS; purified pig GS and whole rat brain homogenates) | GS activity in the cortex (GS [1]; NF 1 and 10 mg/kg i.p.) | GS activity in the hippocampus (GS [1]; NF 1 and 10 mg/kg i.p.) | GS activity in the thalamus/hypothalamus (GS [1]; NF 1 and 10 mg/kg i.p., twenty four hours after administration) | dose of maximum effect on hippocampus GS activity (GS [1]; rat, in vivo) | GS activity in the hippocampus (GS [2]) | GS activity in the thalamus/hypothalamus (GS [2]; GF 1 mg/kg) | “high” concentration range inhibiting GS activity (Wistar rat brain GS) | Compound | identity of the precipitated protein (dotblot) (purified pig brain GS; anti-GS antibodies) | adrenal weight ([3]; GF 0.001, 0.01, 0.1 mg/kg, NF 1 and 10 mg/kg, methyprednisolone 5 mg/kg i.p., 21 days, versus PCB) | dose relation of the effect on adrenal weight ([3]; rat, in vivo) | Ki (GS (mung bean))
70% | 30% | revealed a clear precipitated protein | precipitated dose dependently GS protein | did not reveal any protein | No significant treatment-effect | increased GS activity | dose-dependently decreased GS activity | 1 mg/kg | trend to an increase of GS activity | decreased | 10^−12 to 10^−14 M | NC(=O)NN=C1C=Cc2ccccc2C1=O [NF, 1-oxo, 2 naphtyl semicarbazone] | revealed specifically glutamine synthetase | higher | dose-dependent effect | 
 |  |  |  |  |  |  |  |  |  |  |  | NC1(C(=O)O)CCC(P(=O)(O)O)C1 (centres unmarked) [Cyclopentane phosphinothricin, 1-Amino-3-phosphono-cyclopentane-carboxylic acid] |  |  |  | 0.47 µM
 |  |  |  |  |  |  |  |  |  |  |  | NC1(C(=O)O)COC(P(=O)(O)O)C1 (centres unmarked) [Tetrahydrofuran phosphinothricin, 3-Amino-5-phosphono-tetrahydro-furan-3-carboxylic acid] |  |  |  | 5 µM
